We go through one molecule from ChEMBL document CHEMBL5380814, “Targeting Receptor-Interacting Protein Kinase 1 by Novel Benzothiazole Derivatives: Treatment of Acute Lung Injury through the Necroptosis Pathway” (J Med Chem, 2023).

Active and inactive are the calls of the source. The calls are words filed in the database; no cut-off is given here.

The subject of test [1] is HT-29. Nature of the test: Anti-necroptotic activity in human HT-29 cells assessed as protection against human TNFalpha/cycloheximide/Z-VAD-FMK induced necroptosis preincubated with compound at 0.3 uM for 16 to 24 hrs followed by TCZ stimulation for 16 hrs measured by cell-titre glo luminescent cell viability assay relative to control. The class given is functional. The settings on record: time 32-40 hrs.

The subject of test [2] is Mus musculus. Nature of the test: In vivo anti-necrotptic activity in mTNFalpha induced C57BL/6J SIRS mouse model assessed as reduction in serum IL-1beta level pretreated at 5 to 20 mg/kg, po for 1 hr followed by mTNFalpha/Z-VAD-FMK administration measured after 3 hrs by ELISA analysis. The class given is functional, organism-based. The settings on record: dose 5-20 mg/kg, time 4.0 hrs. (In an ELISA, binding on a coated surface is turned into a signal by an enzyme label.)

The target of test [3] is Receptor-interacting serine/threonine-protein kinase 3 (Homo sapiens, UniProt Q9Y572). Nature of the test: Binding affinity to human wildtype full length RIPK3 (M1 to Q307 residues) expressed in bacterial expression system assessed as dissociation constant by kinome scan kd select based qPCR analysis. Background: In qPCR the cycle at which signal appears reflects the starting amount.

For test [4], the system named is U-937. Kind of test: Anti-necroptotic activity in human U-937 cells assessed as protection against human TNFalpha/cycloheximide/Z-VAD-FMK induced necroptosis preincubated with compound at 1 to 7 uM for 16 to 24 hrs followed by TCZ stimulation for 12 hrs measured by cell-titre glo luminescent cell viability assay. Type of test: functional, cell-based. The settings on record: dose 1-7 µM, time 28-36 hrs.

Test [5] has as its system Mus musculus. Kind of test: In vivo anti-inflammatory activity in NNK induced induced C57BL/6J ALI mouse model assessed as decrease in lung IL-6 mRNA level pretreated at 25 to 100 mg/kg, ip for 1 hr followed by NNK administration. Type of test: functional, organism-based. The settings on record: dose 25-100 mg/kg.
The subject of test [6] is Mus musculus. Kind of test: In vivo anti-necrotptic activity in mTNFalpha induced C57BL/6J SIRS mouse model assessed as survival rate pretreated at 10 mg/kg, po for 1 hr followed by mTNFalpha/Z-VAD-FMK administration measured after 40 mins relative to control. Type of test: functional. The settings on record: time 100 min, 1.667 h.
Test [7] deals with HT-29. Kind of test: Cytotoxicity against human HT-29 cells incubated for 16 to 24 hrs measured by cell-titre glo luminescent cell viability assay. Type of test: functional. The conditions noted are these: time 16-24 hrs.
The subject of test [8] is Mus musculus. Kind of test: In vivo anti-inflammatory activity in NNK induced induced C57BL/6J ALI mouse model assessed as decrease in bronchoalveolar lavage fluid (BALF) total protein pretreated intraperitoneally for 1 hr followed by NNK administration. Type of test: functional, organism-based. The conditions noted are these: dose 25-100 mg/kg, route ip.
In test [9] the test system is Mus musculus. Kind of test: In vivo anti-necrotoptic activity in NNK induced induced C57BL/6J ALI mouse model assessed as reduction in RIPK1 phosphorylation pretreated at 100 mg/kg, ip for 1 hr followed by NNK administration. The class given is functional. Set-up: scale not given: the % may be the effect or the level left.
The target in test [10] is T1, Receptor-interacting serine/threonine-protein kinase 1 (Homo sapiens) (UniProt Q13546).
T1 sequence (whole entry): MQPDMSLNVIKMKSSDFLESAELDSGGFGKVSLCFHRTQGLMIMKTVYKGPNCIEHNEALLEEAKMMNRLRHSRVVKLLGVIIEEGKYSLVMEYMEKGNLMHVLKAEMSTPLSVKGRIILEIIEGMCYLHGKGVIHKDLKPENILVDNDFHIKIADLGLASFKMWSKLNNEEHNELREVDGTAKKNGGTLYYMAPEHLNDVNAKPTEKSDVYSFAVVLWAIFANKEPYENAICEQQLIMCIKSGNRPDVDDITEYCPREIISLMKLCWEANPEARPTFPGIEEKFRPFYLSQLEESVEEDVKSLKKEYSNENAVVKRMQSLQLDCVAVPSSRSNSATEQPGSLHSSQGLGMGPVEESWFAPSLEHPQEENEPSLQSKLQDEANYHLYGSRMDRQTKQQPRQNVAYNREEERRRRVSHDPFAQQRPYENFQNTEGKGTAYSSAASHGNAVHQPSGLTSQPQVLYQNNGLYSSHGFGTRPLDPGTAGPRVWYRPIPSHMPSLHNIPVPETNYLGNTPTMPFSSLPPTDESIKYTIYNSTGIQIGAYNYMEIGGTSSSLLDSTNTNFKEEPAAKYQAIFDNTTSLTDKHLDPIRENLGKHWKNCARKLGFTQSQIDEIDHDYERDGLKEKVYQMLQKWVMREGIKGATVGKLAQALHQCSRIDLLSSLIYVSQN
Kind of test: Inhibition of RIPK1 phosphorylation in TSZ-induced human HT-29 cells assessed as blocking of TSZ-induced necrosome formation at 0.5 uM pretreated with compound for 6 hrs followed by TSZ stimulation for 6 hrs measured by Western analysis. The class given is cell-based. The conditions noted are these: time 12.0 hrs.

Test [11] deals with Mus musculus. Nature of the test: In vivo anti-inflammatory activity in NNK induced induced C57BL/6J ALI mouse model assessed as decrease in bronchoalveolar lavage fluid (BALF) IL-6 level pretreated at 25 to 100 mg/kg, ip for 1 hr followed by NNK administration. The class given is functional, organism-based. The settings on record: dose 25-100 mg/kg.
Test [12] has as its system Mus musculus. Kind of test: In vivo anti-necrotptic activity in mTNFalpha induced C57BL/6J SIRS mouse model assessed as survival rate pretreated at 5 mg/kg, po for 1 hr followed by mTNFalpha/Z-VAD-FMK administration measured after 40 mins relative to control. The conditions noted are these: time 100 min, 1.667 h. The class given is functional.
Test [13] deals with Mus musculus. Nature of the test: In vivo anti-inflammatory activity in NNK induced induced C57BL/6J ALI mouse model assessed as decrease in dry lung weight pretreated at 25 to 100 mg/kg, ip for 1 hr followed by NNK administration relative to disease model. The class given is functional, organism-based. The settings on record: dose 25-100 mg/kg.
In test [14] the test system is Mus musculus. Kind of test: In vivo anti-inflammatory activity in NNK induced induced C57BL/6J ALI mouse model assessed as decrease in inflammatory cell infiltration pretreated at 25 to 100 mg/kg, ip for 1 hr followed by NNK administration by HE staining analysis. The class given is functional, organism-based. The conditions noted are these: dose 25-100 mg/kg.
Test [15] deals with Mus musculus. Kind of test: In vivo anti-inflammatory activity in NNK induced induced C57BL/6J ALI mouse model assessed as mild alveolar thickening in lung pretreated at 25 to 100 mg/kg, ip for 1 hr followed by NNK administration by HE staining analysis. Type of test: functional, organism-based. The settings on record: dose 25-100 mg/kg.
For test [16], the system named is HT-29. Kind of test: Anti-necroptotic activity in TSZ induced human HT-29 cells assessed as inhibition of necrosome formation preincubated with compound at 1 uM for 6 hrs followed by TSZ stimulation for 6 hrs measured by cell-titre glo luminescent cell viability assay. The settings on record: time 12.0 hrs. The class given is functional, cell-based.
Test [17] addresses T2, Receptor-interacting serine/threonine-protein kinase 1 (Homo sapiens, UniProt Q13546).
T2 sequence (Q13546 whole entry): T1 sequence (whole entry)
Kind of test: Binding affinity to human wildtype full length RIPK1 (M1 to K305 residues) expressed in bacterial expression system assessed as dissociation constant by kinome scan kd select based qPCR analysis.

Receptor-interacting serine/threonine-protein kinase 3, sequence (Q9Y572 whole entry, the tested form may be a part): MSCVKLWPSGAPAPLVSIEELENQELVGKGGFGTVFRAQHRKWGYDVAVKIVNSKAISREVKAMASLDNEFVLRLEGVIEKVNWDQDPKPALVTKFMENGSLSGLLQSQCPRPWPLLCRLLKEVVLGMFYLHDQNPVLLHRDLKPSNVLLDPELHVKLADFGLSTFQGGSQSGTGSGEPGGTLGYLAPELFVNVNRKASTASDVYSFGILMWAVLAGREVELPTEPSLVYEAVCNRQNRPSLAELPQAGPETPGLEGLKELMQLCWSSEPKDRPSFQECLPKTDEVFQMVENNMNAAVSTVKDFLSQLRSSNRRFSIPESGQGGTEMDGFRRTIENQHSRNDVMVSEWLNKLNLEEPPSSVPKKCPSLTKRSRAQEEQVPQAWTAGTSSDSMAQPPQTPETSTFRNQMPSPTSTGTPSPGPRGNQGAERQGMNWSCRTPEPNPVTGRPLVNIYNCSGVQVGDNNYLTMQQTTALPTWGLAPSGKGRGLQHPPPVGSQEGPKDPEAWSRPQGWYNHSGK

In general, Kd refers to the constant that tells how readily two partners part at equilibrium. By CC50 is commonly meant the concentration at which the toxic effect on the cells reaches its halfway point. For the molecule `CCS(=O)(=O)NC1CCC(C(=O)Nc2nc3cc(F)c(Oc4ccc(F)c(NC(=O)Cc5cccc(C(F)(F)F)c5)c4)cc3s2)CC1` (configuration not stated), the Activity in [1] was >50%; in test [6], 90%; in [8] it was “Dose-Dependent Effect”; in test [9], 100%; in test [12], 30%. The result in test [2], in [4], in test [5], in [11], in test [13] and in test [14] was Active. Besides, the result in test [15] and in [16] was Active. Further, the values for the dissociation constant Kd in test [3] and in test [17] were > 10 µM and 0.085 µM, respectively. Moreover, in test [7], the CC50 is > 100 µM. Besides, the inhibition result in test [10] is “Active”.
